This passage reports Activity results from ChEMBL document CHEMBL1148121, “New seco-prezizaane-type sesquiterpenes, jiadifenin with neurotrophic activity and 1,2-dehydroneomajucin from Illicium jiadifengpi” (J Nat Prod, 2002).

Structures are written as SMILES. Active and inactive are the calls of the source. The rule behind the calls is not given here.

The test system of this assay is Neuron. The experiment in a line: Neurotrophic activity in Sprague-Dawley rat neurons assessed as induction of neurite outgrowth at 0.1 to 10 uM after 5 days by microscopy. It counts as functional, cell-based.

Turning to `C[C@@H]1[C@H](O)C=C2[C@@]13C[C@@H](OC(=O)[C@@H]3O)[C@@]1(O)C(=O)OC[C@@]21C`, the outcome was Active.

Take `COC(=O)C1(O)O[C@@H]2C[C@@]13C(=CC(=O)[C@@H]3C)[C@]1(C)COC(=O)[C@]21O` (mixture of isomers): the result was Active.
